According to patent publication US7033618B2, “Methods of administering gaultherin-containing compositions” (Rutgers University, The State University of New Jersey, priority 1999, dated 2006):

Columns and labels:
[1] = tested on: platelet aggregation in vivo (bleeding time in mouse tail tips); assay: In vivo bleeding time in mouse tail tips; parameters: species or system mice; conditions: oral, pretreatment time 1 h, Aspirin 100 mg/kg
Procedure: Wintergreen-derived gaultherin containing extracts were also shown to inhibit platelet aggregation in vivo. […] The gaultherin-containing extract prolonged mouse bleeding times assessed at 1, 3, and 6 hours after treatment. Therefore, gaultherin-containing extracts prevent platelet aggregation in vitro and in vivo. In vivo assay: The gaultherin-containing extract was mixed with vehicle (2% Tween 80/distilled water) and orally administered to 5 ICR […] (22+2 g) at the doses given in Table V. After 1, 3, or 6 hours of treatment, the mice were suspended in holders and 0.5 mm of the tip of each tail was transected and immersed in a test tube containing saline at 37° C. The bleeding time is defined as the time required for the bleeding to cease for a period of greater than 15 seconds. Prolongation of the bleeding time over that of control animals was then calculated. Aspirin was used as the standard to ensure that the assay was performing as expected.

[2] = Gastric irritation in fasted rats; format: in vivo, Wistar rats; conditions: oral gavage, overnight-fasted rats, 4 h after treatment, extract 5000 mg/kg; for Gastric irritation Total Score: total for three rats (0-4 each), aspirin 150 mg/kg (equal total salicylate)
Procedure: Wintergreen-derived, gaultherin-containing extract and aspirin were given by oral gavage to overnight-fasted Wistar rats (200+/−20 g). The 5000 mg/kg dose of wintergreen extract and the 150 mg/kg dose of aspirin used in the experiment contain equal total amounts of salicylate. Four hours after treatment, the stomach lining was harvested and scored for gastric irritation [Guth et al., Gastroenterology, 76: 88–93 (1979)]. A score of zero was given for no sign of hyperaemia (excess blood or engorgement with blood) or bleeding. A score of one was given when hyperaemia was evident. A score of two was given when some spot bleeding was observed. A score of three was assigned for any hyperaemia and spot bleeding and a score of four for hyperaemia and spot bleeding occurred over the entire stomach. The total aspirin score for three rats was nine as all three rats experienced some hyperaemia and spot bleeding. The total wintergreen-derived, gaultherin-containing extract score was two because only two of the three rats were noted to have some hyperaemia. Based on these responses, the gastric irritation caused by wintergreen extract was substantially less (approximately five times lower) than that caused by aspirin.

[3] = Rat hind paw inflammatory (edema and hyperalgesia) model, Freund's adjuvant; format: in vivo, Sprague-Dawley rats
Procedure: Wintergreen-derived gaultherin-containing extract was administered by per-oral gavage at human dose equivalents of 200 mg and 400 mg per day and Naproxen was administered at a dose of 440 mg per day. Male Sprague-Dawley rats (300–350 grams) were treated for 5 days by gavage. Inflammation (edema and hyperalgesia) was induced 3 days prior to treatment through intraplantar injection of Freund's adjuvant (containing 170 μg Mycobacterium butyricum). Edema was determined by physical measurements of paw thickness and ankle width. Pain tolerance (i.e., pain reduction) was mechanically assessed via digital Von Frey determinations using a series of measurements at 6 locations on the surface of a paw. [Ren et al., ILAR Journal, 40(3):1–12 (1999), Kayser et al., Pain, 28:99–107 (1987)] Measurement terminated at the point of paw withdrawal, auditable indication of discomfort, or animal shuddering. Measurements were performed on left and right paws.

CC(=O)Oc1ccccc1C(=O)O [Aspirin, acetylsalicylic acid]
Avg. Bleed Time, Exp. 2 [1]: 114 s
Avg. Bleed Time, Exp. 1 ([1]; W. Extract 5000 mg/kg): 120 s
Prolongation of bleeding time, Exp. 1 ([1]; W. Extract 5000 mg/kg, over control animals): 100%
Prolongation of bleeding time, Exp. 2 ([1]; over control animals): 73%
Gastric irritation Total Score [2]: 9
Gastric irritation Total Score ([2]; listed as aspirin): nine
Gastric irritation Response ([2]; aspirin 150 mg/kg): 100%

COC(=O)c1ccccc1O[C@@H]1O[C@H](CO[C@@H]2OC[C@@H](O)[C@H](O)[C@H]2O)[C@@H](O)[C@H](O)[C@H]1O [Gaultherin, gaultherin]
Edema reduction ([3]; 200 mg/day (human dose equivalent) for 5 days, per-oral gavage): 12.2%
Edema reduction ([3]; 400 mg/day (human dose equivalent) for 5 days, per-oral gavage): 16.9%
improvement in pain tolerance (digital Von Frey) ([3]; human dose equivalent of 200 mg per day, 5 days, gavage): 6.7%
improvement in pain tolerance (digital Von Frey) ([3]; human dose equivalent of 400 mg per day, 5 days, gavage): 9.9%

COc1ccc2cc([C@H](C)C(=O)O)ccc2c1 [Naproxen]
anti-inflammatory and analgesic effect ([3]; 440 mg per day, 5 days, gavage): predictable anti-inflammatory and analgesic effect
Edema reduction ([3]; 440 mg/day for 5 days, gavage): 28%
